This is an account of results in patent US9193722B2, “Tri-cyclic pyrazolopyridine kinase inhibitors” (Vertex Pharmaceuticals Incorporated, priority 2008, dated 2015).

What all share (type): biochemical
One assay has as its target PKC theta kinase (Homo sapiens, UniProt Q04759). In words: PKC theta kinase inhibition, coupled-enzyme (NADH absorbance) assay, Ki. The following applies: 240 μM ATP, 18 nM PKC theta kinase, 30° C. The procedure, abridged: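 Enzyme and compound equilibrated 10 min at 30 °C before reaction in HEPES pH 7.5 buffer with MgCl2, NaCl, EDTA and Brij. Activity tracked as NADH loss at 340 nm through a coupled system. Initial-rate data fitted by non-linear regression to give Ki.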

The target of another assay is PKC alpha kinase (Homo sapiens, UniProt P17252). In words: PKC alpha kinase inhibition, coupled-enzyme (NADH absorbance) assay, Ki. The following applies: 130 μM ATP, 4.5 nM PKC alpha kinase, 30° C. An outline of the steps:
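Ki derived by non-linear regression of initial rates from a coupled assay tracking NADH absorbance at 340 nm over 15 min at 30 °C. ATP was 130 μM final after a 10 min compound–enzyme preincubation in HEPES pH 7.5 buffer with MgCl2, CaCl2, NaCl, EDTA and Brij.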

Another assay concerns the target PKC delta kinase (Homo sapiens, UniProt Q05655). In words: PKC delta kinase inhibition, coupled-enzyme (NADH absorbance) assay, Ki. As to conditions: 150 μM ATP, 46 nM PKC delta kinase, 30° C.; read-out: Ki PKC delta. An outline of the steps: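 Enzyme and compound pre-equilibrated 10 min at 30° C before adding ATP to 150 μM final. Buffer: HEPES pH 7.5 (100 mM), 10 mM MgCl2, 25 mM NaCl, 0.1 mM EDTA, 0.01% Brij.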

PKC delta kinase, sequence (Q05655 whole entry): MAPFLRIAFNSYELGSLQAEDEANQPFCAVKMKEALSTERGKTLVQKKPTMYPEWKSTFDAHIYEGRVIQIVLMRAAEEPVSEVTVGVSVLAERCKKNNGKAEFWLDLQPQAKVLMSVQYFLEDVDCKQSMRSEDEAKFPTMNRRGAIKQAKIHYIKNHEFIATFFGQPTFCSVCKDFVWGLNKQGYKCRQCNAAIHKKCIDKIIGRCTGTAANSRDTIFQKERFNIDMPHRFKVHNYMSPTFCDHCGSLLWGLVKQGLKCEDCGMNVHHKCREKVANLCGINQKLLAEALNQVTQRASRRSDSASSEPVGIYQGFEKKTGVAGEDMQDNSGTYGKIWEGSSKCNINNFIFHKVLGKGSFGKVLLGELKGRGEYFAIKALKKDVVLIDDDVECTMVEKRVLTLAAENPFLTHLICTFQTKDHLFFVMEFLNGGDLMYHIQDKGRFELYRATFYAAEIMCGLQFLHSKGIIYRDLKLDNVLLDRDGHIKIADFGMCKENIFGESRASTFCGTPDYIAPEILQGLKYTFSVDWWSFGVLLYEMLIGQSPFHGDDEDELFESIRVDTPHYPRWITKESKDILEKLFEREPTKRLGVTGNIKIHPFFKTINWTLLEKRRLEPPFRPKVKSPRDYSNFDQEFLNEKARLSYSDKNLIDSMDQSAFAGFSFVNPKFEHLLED
PKC theta kinase, sequence (Q04759 whole entry): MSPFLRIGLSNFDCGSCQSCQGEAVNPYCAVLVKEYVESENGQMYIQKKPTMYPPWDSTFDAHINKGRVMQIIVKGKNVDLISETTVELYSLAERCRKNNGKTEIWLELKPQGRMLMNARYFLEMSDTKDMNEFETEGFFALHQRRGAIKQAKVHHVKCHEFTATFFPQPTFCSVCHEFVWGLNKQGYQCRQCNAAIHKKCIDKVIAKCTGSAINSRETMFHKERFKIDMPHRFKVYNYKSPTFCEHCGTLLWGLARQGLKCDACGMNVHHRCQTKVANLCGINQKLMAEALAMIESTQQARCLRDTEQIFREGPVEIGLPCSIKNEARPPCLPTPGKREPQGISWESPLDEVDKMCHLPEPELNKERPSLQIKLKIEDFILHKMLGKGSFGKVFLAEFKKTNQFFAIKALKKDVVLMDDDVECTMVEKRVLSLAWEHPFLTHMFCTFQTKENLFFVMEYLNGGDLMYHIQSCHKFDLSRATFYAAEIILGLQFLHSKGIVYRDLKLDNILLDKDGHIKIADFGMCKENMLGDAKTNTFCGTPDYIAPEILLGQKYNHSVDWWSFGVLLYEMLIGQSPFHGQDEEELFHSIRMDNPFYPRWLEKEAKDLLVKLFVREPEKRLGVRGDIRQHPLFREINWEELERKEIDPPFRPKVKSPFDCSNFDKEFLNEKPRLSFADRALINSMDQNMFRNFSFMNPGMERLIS

For the compound `N#CC1(c2cccc(-c3n[nH]c4ncccc34)n2)CCNCC1` [Compound 234], the Ki on PKC theta kinase was less than 50 nM; at PKC alpha kinase, less than 500 nM; at PKC delta kinase, less than 500 nM.
Regarding `CC(C)C(C)(O)C1CN(c2ccc(C(F)(F)F)c(-c3n[nH]c4ncccc34)n2)CCN1` (stereo not drawn) [Compound 236], the Ki at PKC theta kinase was less than 50 nM; on PKC alpha kinase, greater than 1250 nM; at PKC delta kinase, greater than 1250 nM.
As for `CC(C)C(C)C1CN(c2ccc(F)c(-c3n[nH]c4ncccc34)n2)CCN1` (stereo not drawn) [Compound 238], the values for the Ki at PKC theta kinase, on PKC alpha kinase and at PKC delta kinase were less than 50 nM, greater than 1250 nM and less than 500 nM, respectively.
On to `OC1(C2CN(c3ccc(F)c(-c4n[nH]c5ncccc45)n3)CCN2)CCC1` (stereo not drawn) [Compound 240], for which the Ki on PKC theta kinase is less than 50 nM; at PKC alpha kinase, greater than 1250 nM; on PKC delta kinase, less than 500 nM.
As to `CCC(C)(O)C1CN(c2ccc(F)c(-c3n[nH]c4ncccc34)n2)CCN1` (stereo not drawn) [Compound 241], the results for the Ki on PKC theta kinase, at PKC alpha kinase and on PKC delta kinase were less than 50 nM, less than 2800 nM and less than 500 nM, respectively.
For the compound `CCC(C)(O)C1CN(c2ccc(F)c(-c3n[nH]c4ncccc34)n2)CCN1` (stereo not drawn) [Compound 242], the Ki at PKC theta kinase is less than 50 nM; at PKC alpha kinase, greater than 1250 nM; on PKC delta kinase, less than 500 nM.
For `CCC(C)(O)C1CN(c2ccc(F)c(-c3n[nH]c4ncccc34)n2)CCN1` (stereo not drawn) [Compound 243], the Ki at PKC theta kinase was less than 500 nM; at PKC alpha kinase, greater than 1250 nM; on PKC delta kinase, greater than 1250 nM.
Regarding `CCC(C)(O)C1CN(c2ccc(F)c(-c3n[nH]c4ncccc34)n2)CCN1` (stereo not drawn) [Compound 244], the results for the Ki at PKC theta kinase, on PKC alpha kinase and on PKC delta kinase were less than 500 nM, greater than 1250 nM and greater than 1250 nM, respectively.
Consider `OC1(C2CN(c3ccc(F)c(-c4n[nH]c5ncccc45)n3)CCN2)CCCC1` (stereo not drawn) [Compound 245], for which the Ki is less than 50 nM at PKC theta kinase, greater than 1250 nM at PKC alpha kinase and less than 500 nM at PKC delta kinase.
Regarding `CC(F)(F)C(C)(O)C1CN(c2ccc(F)c(-c3n[nH]c4ncccc34)n2)CCN1` (stereo not drawn) [Compound 246], the Ki on PKC theta kinase is less than 50 nM; on PKC alpha kinase, greater than 1250 nM; on PKC delta kinase it was less than 500 nM.
Consider `CC(O)(C1CC1)C1CN(c2ccc(F)c(-c3n[nH]c4ncccc34)n2)CCN1` (stereo not drawn) [Compound 247], for which the Ki on PKC theta kinase was less than 50 nM; on PKC alpha kinase it was less than 2800 nM; at PKC delta kinase, less than 500 nM.
As for `CC(C)(F)C(C)(O)C1CN(c2ccc(F)c(-c3n[nH]c4ncccc34)n2)CCN1` (stereo not drawn) [Compound 248], the Ki on PKC theta kinase was less than 1 nM; on PKC alpha kinase it was less than 2800 nM; on PKC delta kinase it was less than 500 nM.
Turning to `CC(C)(F)C(C)(O)C1CN(c2ccc(F)c(-c3n[nH]c4ncccc34)n2)CCN1` (stereo not drawn) [Compound 249], the Ki is less than 50 nM at PKC theta kinase, greater than 1250 nM on PKC alpha kinase and greater than 1250 nM at PKC delta kinase.
With `CC(C)(F)C(C)(O)C1CN(c2ccc(F)c(-c3n[nH]c4ncccc34)n2)CCN1` (stereo not drawn) [Compound 250], the Ki was less than 50 nM on PKC theta kinase, greater than 1250 nM at PKC alpha kinase and less than 500 nM on PKC delta kinase.
On to `OC1([C@@H]2CN(c3ccc(F)c(-c4n[nH]c5ncccc45)n3)CCN2)CC1` [Compound 251], for which the Ki at PKC theta kinase was less than 50 nM; on PKC alpha kinase it was greater than 1250 nM; at PKC delta kinase it was less than 500 nM.
`CC(C)C(O)C1CN(c2ccc(F)c(-c3n[nH]c4ncccc34)n2)CCN1` (stereo not drawn) [Compound 252]: the results for the Ki on PKC theta kinase, at PKC alpha kinase and on PKC delta kinase were less than 50 nM, less than 2800 nM and less than 500 nM, respectively.
Consider `CC(C)(F)C(C)(O)C1CN(c2ccc(F)c(-c3n[nH]c4ncccc34)n2)CCN1` (stereo not drawn) [Compound 254], for which the figures for the Ki on PKC theta kinase, on PKC alpha kinase and at PKC delta kinase were less than 1 nM, greater than 1250 nM and less than 50 nM, respectively.
Regarding `O=C1CN(c2ccc(F)c(-c3n[nH]c4ncccc34)n2)CCN1` [Compound 255], the figures for the Ki on PKC theta kinase, at PKC alpha kinase and on PKC delta kinase were greater than 700 nM, greater than 1250 nM and greater than 1250 nM, respectively.
In the case of `CC1CN(c2ccc(F)c(-c3n[nH]c4ncccc34)n2)CC(C2(O)CCC2)N1` (stereo not drawn) [Compound 256], the Ki on PKC theta kinase is less than 500 nM; on PKC alpha kinase it was greater than 1250 nM; on PKC delta kinase, greater than 1250 nM.
Turning to `OCCC1CCCCN1c1ccc(C(F)(F)F)c(-c2n[nH]c3ncccc23)n1` (stereo not drawn) [Compound 257], the Ki on PKC theta kinase was greater than 700 nM; at PKC alpha kinase, greater than 1250 nM; at PKC delta kinase, greater than 1250 nM.
Consider `OCC1CCCN(c2ccc(C(F)(F)F)c(-c3n[nH]c4ncccc34)n2)C1` (stereo not drawn) [Compound 258], for which the Ki was greater than 700 nM on PKC theta kinase, greater than 1250 nM at PKC alpha kinase and greater than 1250 nM on PKC delta kinase.
For `NC(=O)C1(N2CCCCC2)CCN(c2ccc(C(F)(F)F)c(-c3n[nH]c4ncccc34)n2)CC1` [Compound 259], the figures for the Ki on PKC theta kinase, on PKC alpha kinase and on PKC delta kinase were greater than 700 nM, greater than 1250 nM and greater than 1250 nM, respectively.
`Cc1cc([C@@H]2CN(c3ccc(F)c(-c4n[nH]c5ncccc45)n3)CCN2)[nH]n1` [Compound 260]: the Ki on PKC theta kinase was less than 500 nM; on PKC alpha kinase it was greater than 1250 nM; at PKC delta kinase, greater than 1250 nM.
Consider `CC1CN(c2ccc(C(F)(F)F)c(-c3n[nH]c4ncccc34)n2)CC(C2(O)CCC2)N1` (stereo not drawn) [Compound 261], for which the Ki on PKC theta kinase is greater than 700 nM; on PKC alpha kinase it was greater than 1250 nM; on PKC delta kinase it was greater than 1250 nM.
With `CC(N)[C@H]1CCCN(c2ccc(F)c(-c3n[nH]c4ncccc34)n2)C1` (stereo partly drawn) [Compound 262], the Ki at PKC theta kinase is less than 50 nM; on PKC alpha kinase it was greater than 1250 nM; on PKC delta kinase it was less than 500 nM.
With `CC(C)C(O)(CF)C1CN(c2ccc(F)c(-c3n[nH]c4ncccc34)n2)CCN1` (stereo not drawn) [Compound 264], the Ki at PKC theta kinase is less than 50 nM; at PKC alpha kinase, greater than 1250 nM; at PKC delta kinase it was less than 500 nM.
For `CC(C)C(N)[C@H]1CCCN(c2ccc(C(F)(F)F)c(-c3n[nH]c4ncccc34)n2)C1` (stereo partly drawn) [Compound 265], the figures for the Ki on PKC theta kinase, at PKC alpha kinase and on PKC delta kinase were less than 500 nM, greater than 1250 nM and less than 500 nM, respectively.
`Fc1ccc(N2CCCCC2)nc1-c1n[nH]c2ncccc12` [Compound 266]: the Ki was greater than 700 nM on PKC theta kinase, greater than 1250 nM on PKC alpha kinase and greater than 1250 nM on PKC delta kinase.
For `Fc1ccc(N2CCC(F)CC2)nc1-c1n[nH]c2ncccc12` [Compound 267], the Ki at PKC theta kinase was greater than 700 nM; at PKC alpha kinase, greater than 1250 nM; at PKC delta kinase, greater than 1250 nM.
For `Fc1ccc(N2CCC(C(F)(F)F)CC2)nc1-c1n[nH]c2ncccc12` [Compound 268], the Ki was greater than 700 nM at PKC theta kinase, greater than 1250 nM at PKC alpha kinase and greater than 1250 nM on PKC delta kinase.
On to `CC(C)C[C@@]1(O)CN(c2ccc(F)c(-c3n[nH]c4ncccc34)n2)CC[C@@H]1N` [Compound 269], for which the results for the Ki at PKC theta kinase, on PKC alpha kinase and at PKC delta kinase were less than 50 nM, less than 500 nM and less than 500 nM, respectively.
In the case of `CC(C)C(N)[C@H]1CCCN(c2ccc(F)c(-c3n[nH]c4ncccc34)n2)C1` (stereo partly drawn) [Compound 270], the results for the Ki at PKC theta kinase, at PKC alpha kinase and at PKC delta kinase were less than 50 nM, greater than 1250 nM and greater than 1250 nM, respectively.
`C[C@](O)(c1ccccc1)[C@@H]1CN(c2ccc(F)c(-c3n[nH]c4ncccc34)n2)CCN1` [Compound 274]: the Ki was less than 500 nM on PKC theta kinase, greater than 1250 nM on PKC alpha kinase and greater than 1250 nM at PKC delta kinase.
In the case of `N#CC1CCN(c2ccc(F)c(-c3n[nH]c4ncccc34)n2)CC1` [Compound 275], the values for the Ki on PKC theta kinase, at PKC alpha kinase and on PKC delta kinase were greater than 700 nM, greater than 1250 nM and greater than 1250 nM, respectively.
Consider `CC(C)C(C)(O)[C@H]1CCCN(c2ccc(F)c(-c3n[nH]c4ncccc34)n2)C1` (stereo partly drawn) [Compound 277], for which the Ki on PKC theta kinase was less than 500 nM; at PKC alpha kinase it was greater than 1250 nM; at PKC delta kinase it was greater than 1250 nM.
